In PubChem BioAssay (NCI):
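48-hour exposure; five concentrations; linearly interpolated endpoints. The concentration for 50% growth inhibition is given as GI50. TGI: concentration producing complete growth inhibition.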

Tests used:
Assay in all cases: NCI anticancer screen, dose series, 48 h
M14 melanoma = test system: M14 melanoma
SN12C renal = test system: SN12C renal
A549 NSCLC = test system: A549 NSCLC
UACC-257 melanoma = test system: UACC-257 melanoma
SR leukemia = test system: SR leukemia
ACHN renal = test system: ACHN renal
HCT-15 colon = test system: HCT-15 colon
KM12 colon = test system: KM12 colon
COLO 205 colon = test system: COLO 205 colon
HCC-2998 colon = test system: HCC-2998 colon
SNB-75 CNS = test system: SNB-75 CNS
MDA-MB-435 = test system: MDA-MB-435
BT-549 breast = test system: BT-549 breast
OVCAR-3 ovarian = test system: OVCAR-3 ovarian
HOP-92 NSCLC = test system: HOP-92 NSCLC
NCI/ADR-RES ovarian = test system: NCI/ADR-RES ovarian
U251 CNS = test system: U251 CNS
HOP-62 NSCLC = test system: HOP-62 NSCLC
SK-MEL-28 melanoma = test system: SK-MEL-28 melanoma
T-47D breast = test system: T-47D breast
SK-OV-3 ovarian = test system: SK-OV-3 ovarian
OVCAR-8 ovarian = test system: OVCAR-8 ovarian
SNB-19 CNS = test system: SNB-19 CNS
NCI-H23 lung = test system: NCI-H23 lung
RPMI-8226 leukemia = test system: RPMI-8226 leukemia
MALME-3M melanoma = test system: MALME-3M melanoma
TK-10 renal = test system: TK-10 renal
CCRF-CEM leukemia = test system: CCRF-CEM leukemia
MDA-MB-231 breast = test system: MDA-MB-231 breast
NCI-H522 lung = test system: NCI-H522 lung
RXF 393 renal = test system: RXF 393 renal
MCF7 breast = test system: MCF7 breast
OVCAR-4 ovarian = test system: OVCAR-4 ovarian
SF-295 CNS = test system: SF-295 CNS
HT29 colon = test system: HT29 colon
IGROV1 ovarian = test system: IGROV1 ovarian
UACC-62 melanoma = test system: UACC-62 melanoma
A498 renal = test system: A498 renal
HCT-116 colon = test system: HCT-116 colon
OVCAR-5 ovarian = test system: OVCAR-5 ovarian
MOLT-4 leukemia = test system: MOLT-4 leukemia
EKVX NSCLC = test system: EKVX NSCLC
SK-MEL-2 melanoma = test system: SK-MEL-2 melanoma
786-0 renal = test system: 786-0 renal
SF-268 CNS = test system: SF-268 CNS
SW-620 colon = test system: SW-620 colon
DU-145 prostate = test system: DU-145 prostate
SK-MEL-5 melanoma = test system: SK-MEL-5 melanoma
HS 578T breast = test system: HS 578T breast
PC-3 prostate = test system: PC-3 prostate
SF-539 CNS = test system: SF-539 CNS
NCI-H226 lung = test system: NCI-H226 lung
LOX IMVI melanoma = test system: LOX IMVI melanoma
NCI-H460 lung = test system: NCI-H460 lung
UO-31 renal = test system: UO-31 renal
HL-60(TB) leukemia = test system: HL-60(TB) leukemia
K-562 leukemia = test system: K-562 leukemia

## COC(=O)C(C)NP(=O)(OCc1ccc(Cn2cnc3c(N)ncnc32)cc1)Oc1ccccc1 (centres undefined)
M14 melanoma
  GI50: 55.4 µM
  TGI: > 100 µM
SN12C renal
  GI50: 73.4 µM
  TGI: > 100 µM
A549 NSCLC
  GI50: > 84.2 µM
  TGI: > 100 µM
UACC-257 melanoma
  GI50: > 100 µM
  TGI: > 100 µM
SR leukemia
  GI50: > 100 µM
  TGI: > 100 µM
ACHN renal
  GI50: > 100 µM
  TGI: > 100 µM
HCT-15 colon
  GI50: > 100 µM
  TGI: > 100 µM
KM12 colon
  GI50: 25.2 µM
  TGI: > 96.1 µM
COLO 205 colon
  GI50: > 91.6 µM
  TGI: > 100 µM
HCC-2998 colon
  GI50: 27.7 µM
  TGI: 84.4 µM
SNB-75 CNS
  GI50: 40.1 µM
  TGI: > 100 µM
MDA-MB-435
  GI50: 43 µM
  TGI: > 100 µM
BT-549 breast
  GI50: 24.2 µM
  TGI: 72.5 µM
OVCAR-3 ovarian
  GI50: 34.7 µM
  TGI: > 82.1 µM
HOP-92 NSCLC
  GI50: 29.8 µM
  TGI: > 100 µM
NCI/ADR-RES ovarian
  GI50: > 100 µM
  TGI: > 100 µM
U251 CNS
  GI50: 37.3 µM
  TGI: > 100 µM
HOP-62 NSCLC
  GI50: > 68.6 µM
  TGI: > 100 µM
SK-MEL-28 melanoma
  GI50: 30.4 µM
  TGI: > 84.9 µM
T-47D breast
  GI50: > 56.7 µM
  TGI: > 100 µM
SK-OV-3 ovarian
  GI50: > 100 µM
  TGI: > 100 µM
OVCAR-8 ovarian
  GI50: 76.8 µM
  TGI: > 100 µM
SNB-19 CNS
  GI50: > 64.2 µM
  TGI: > 100 µM
NCI-H23 lung
  GI50: 36.5 µM
  TGI: > 100 µM
RPMI-8226 leukemia
  GI50: 17.1 µM
  TGI: 65.3 µM
MALME-3M melanoma
  GI50: 20.8 µM
  TGI: 57 µM
TK-10 renal
  GI50: > 100 µM
  TGI: > 100 µM
CCRF-CEM leukemia
  GI50: 50 µM
  TGI: > 100 µM
MDA-MB-231 breast
  GI50: > 63.4 µM
  TGI: > 100 µM
NCI-H522 lung
  GI50: 28.4 µM
  TGI: > 69 µM
RXF 393 renal
  GI50: 81.5 µM
  TGI: > 100 µM
MCF7 breast
  GI50: 36.8 µM
  TGI: > 100 µM
OVCAR-4 ovarian
  GI50: > 100 µM
  TGI: > 100 µM
SF-295 CNS
  GI50: > 78.9 µM
  TGI: > 100 µM
HT29 colon
  GI50: > 67.8 µM
  TGI: > 100 µM
IGROV1 ovarian
  GI50: 39.1 µM
  TGI: > 100 µM
UACC-62 melanoma
  GI50: 28.6 µM
  TGI: > 94.1 µM
A498 renal
  GI50: > 100 µM
  TGI: > 100 µM
HCT-116 colon
  GI50: 26 µM
  TGI: 63.4 µM
OVCAR-5 ovarian
  GI50: > 100 µM
  TGI: > 100 µM
MOLT-4 leukemia
  GI50: 32.2 µM
  TGI: > 100 µM
EKVX NSCLC
  GI50: > 81.2 µM
  TGI: > 100 µM
SK-MEL-2 melanoma
  GI50: > 73.9 µM
  TGI: > 100 µM
786-0 renal
  GI50: > 100 µM
  TGI: > 100 µM
SF-268 CNS
  GI50: 36.9 µM
  TGI: > 100 µM
SW-620 colon
  GI50: > 83.5 µM
  TGI: > 100 µM
DU-145 prostate
  GI50: > 100 µM
  TGI: > 100 µM
SK-MEL-5 melanoma
  GI50: 6.39 µM
  TGI: 33.4 µM
HS 578T breast
  GI50: 15.5 µM
  TGI: 49.7 µM
PC-3 prostate
  GI50: 31.3 µM
  TGI: > 100 µM
SF-539 CNS
  GI50: > 100 µM
  TGI: > 100 µM
NCI-H226 lung
  GI50: > 93.5 µM
  TGI: > 100 µM
LOX IMVI melanoma
  GI50: 21.4 µM
  TGI: 53.8 µM
NCI-H460 lung
  GI50: 67.9 µM
  TGI: > 100 µM
UO-31 renal
  GI50: > 100 µM
  TGI: > 100 µM
HL-60(TB) leukemia
  GI50: 79.9 µM
  TGI: > 100 µM
K-562 leukemia
  GI50: > 93.1 µM
  TGI: > 100 µM
